US20240360150A1, “ISOINDOLINONE COMPOUNDS AND USES THEREOF” (HANGZHOU GLUBIO PHARMACEUTICAL CO. LTD., priority 2021, published 2024)

molecular target: T1, HiBiT-tagged IKZF1 (Homo sapiens, UniProt Q13422+Q96SW2); assay: Degradation assay for IKZF1 (HiBiT tag bioluminescence assay); type: cell-based; conditions: HT-1080, Table 1; HT-1080 IKZF1 HiBiT reporter cells; maximum percentage of protein degradation
T1 construct: expressed in transfected cells; host or cells: HT-1080 (ATCC CCL-121), lentiviral transduction
Experimental: (§1) About 10,000 cells in complete DMEM cell culture media were seeded per well. Assay plates were incubated at 37° C. with 5% CO2 for hours, followed by the assessment of IKZF1 or SALL4 degradation using the Nano-Glo HiBiT Lytic Detection Reagent (Cat #N3050, Promega) according to the manufacturer's instruction. Luminescence was then measured with an EnVision plate reader (PerkinElmer) or a PHERAstar plate reader (BMG Labtech). All IKZF1 or SALL4 degradation curves were processed using Collaborative Drug Discovery Vault softwares. IKZF1 or SALL4 levels in compound-treated wells were normalized to that of DMSO control and expressed as Percent of Control (PoC, y). A four Parameter Logistic Model was used to determine the compound's EC50 and DC50, using the following equation:
(§2) A=Ymin (lowest IKZF1 or SALL4 level normalized to DMSO control in response to compound treatment, as determined by curve fit)
(§3) B=Ymax (IKZF1 or SALL4 level in DMSO control)
(§4) C=EC50 half degradation concentration
(§5) EC50=the concentration of compound when y=(Ymax−Ymin)/2
(§6) DC50=test sample concentration when IKZF1 or SALL4 readings y=50% DMSO-treated samples
(§7) y=IKZF1 or SALL4 readings after test sample treatment (normalized to IKZF1 or SALL4 readings in DMSO-treated samples)
(§8) Dmax represents the maximum percentage of IKZF1 or SALL4 protein degradation induced by compound treatment.

T1 sequence (Q13422 whole entry): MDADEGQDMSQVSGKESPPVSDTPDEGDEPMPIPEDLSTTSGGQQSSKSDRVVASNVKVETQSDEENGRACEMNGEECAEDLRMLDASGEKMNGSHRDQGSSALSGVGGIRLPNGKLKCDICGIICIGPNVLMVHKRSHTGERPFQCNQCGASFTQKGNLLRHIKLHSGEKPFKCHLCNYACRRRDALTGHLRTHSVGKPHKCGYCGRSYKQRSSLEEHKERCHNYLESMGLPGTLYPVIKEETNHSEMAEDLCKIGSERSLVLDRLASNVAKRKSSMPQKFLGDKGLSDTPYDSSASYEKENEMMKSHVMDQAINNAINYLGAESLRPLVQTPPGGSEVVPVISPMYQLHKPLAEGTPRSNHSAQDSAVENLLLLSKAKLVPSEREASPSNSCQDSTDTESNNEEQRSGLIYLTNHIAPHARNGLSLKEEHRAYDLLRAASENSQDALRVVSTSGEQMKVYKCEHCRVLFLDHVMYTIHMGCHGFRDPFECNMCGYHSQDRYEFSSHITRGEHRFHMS
T1 sequence (Q96SW2 whole entry): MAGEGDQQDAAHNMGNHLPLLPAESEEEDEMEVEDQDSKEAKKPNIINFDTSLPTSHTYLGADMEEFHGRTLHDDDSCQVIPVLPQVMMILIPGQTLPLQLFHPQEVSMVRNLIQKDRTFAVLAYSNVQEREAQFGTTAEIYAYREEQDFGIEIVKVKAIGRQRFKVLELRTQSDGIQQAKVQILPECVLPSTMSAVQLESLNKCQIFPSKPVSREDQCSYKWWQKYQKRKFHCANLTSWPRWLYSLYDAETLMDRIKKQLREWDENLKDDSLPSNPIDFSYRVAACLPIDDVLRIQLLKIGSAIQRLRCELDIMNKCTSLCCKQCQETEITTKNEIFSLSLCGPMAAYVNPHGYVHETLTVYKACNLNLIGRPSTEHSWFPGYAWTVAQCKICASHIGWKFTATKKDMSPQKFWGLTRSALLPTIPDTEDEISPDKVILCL
T1 sequence (Q16531 whole entry partner): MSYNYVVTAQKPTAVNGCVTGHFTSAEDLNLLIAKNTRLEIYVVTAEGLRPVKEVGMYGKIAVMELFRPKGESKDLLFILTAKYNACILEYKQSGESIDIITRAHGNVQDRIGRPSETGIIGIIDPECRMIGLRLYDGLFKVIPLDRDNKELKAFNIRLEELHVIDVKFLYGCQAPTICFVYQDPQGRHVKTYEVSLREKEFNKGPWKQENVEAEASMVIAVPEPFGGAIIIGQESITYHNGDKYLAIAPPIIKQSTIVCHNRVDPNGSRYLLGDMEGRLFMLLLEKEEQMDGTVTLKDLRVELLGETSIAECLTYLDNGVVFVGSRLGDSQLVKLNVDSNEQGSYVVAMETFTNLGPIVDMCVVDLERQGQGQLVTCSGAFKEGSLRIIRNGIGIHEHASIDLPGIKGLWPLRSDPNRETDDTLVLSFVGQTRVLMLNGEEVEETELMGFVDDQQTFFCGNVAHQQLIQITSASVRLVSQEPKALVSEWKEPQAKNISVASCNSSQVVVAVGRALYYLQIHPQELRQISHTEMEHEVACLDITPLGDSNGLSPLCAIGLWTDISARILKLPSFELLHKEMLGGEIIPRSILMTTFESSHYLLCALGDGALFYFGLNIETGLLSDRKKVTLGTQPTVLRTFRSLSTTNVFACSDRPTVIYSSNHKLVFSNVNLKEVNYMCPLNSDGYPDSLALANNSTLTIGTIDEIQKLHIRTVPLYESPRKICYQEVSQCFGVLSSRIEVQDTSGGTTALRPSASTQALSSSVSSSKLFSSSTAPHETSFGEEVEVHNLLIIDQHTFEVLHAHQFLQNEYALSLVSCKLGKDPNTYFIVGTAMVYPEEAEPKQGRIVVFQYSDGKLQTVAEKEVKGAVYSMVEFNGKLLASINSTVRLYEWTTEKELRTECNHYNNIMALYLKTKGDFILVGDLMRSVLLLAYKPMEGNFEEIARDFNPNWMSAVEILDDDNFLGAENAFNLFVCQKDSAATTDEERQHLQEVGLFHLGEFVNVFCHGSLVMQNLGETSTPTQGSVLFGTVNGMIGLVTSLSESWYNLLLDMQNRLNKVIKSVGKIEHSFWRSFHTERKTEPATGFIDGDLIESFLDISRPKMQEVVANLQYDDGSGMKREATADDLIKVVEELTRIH

Going from `O=C1CCC(N2C(=O)c3cc(F)cc4c(Cc5ccc(CN6CC(N7CCOCC7)C6)cc5F)ccc2c34)C(=O)N1` (centres unmarked) [Compound 6] to `O=C1CCC(N2C(=O)c3cc(F)cc4c(Cc5ccc(CN6CCC(N7CCOCC7)CC6)cc5F)ccc2c34)C(=O)N1` (centres unmarked) [Compound 11], the Dmax falls from 74.6% to 66.2%.

Compared with `O=C1CCC(N2C(=O)c3cc(F)cc4c(Cc5ccc(CN6CCC7(CCCO7)CC6)cc5F)ccc2c34)C(=O)N1` (centres unmarked) [Compound 7], `O=C1CCC(N2C(=O)c3cc(F)cc4c(Cc5ccc(CN6CCOCC6)cc5F)ccc2c34)C(=O)N1` (centres unmarked) [Compound 8] is lower in Dmax: 86.3% for the first, 75.2% for the second.

Work on `N#Cc1cnc2c(c1)OC[C@H]1CN(Cc3ccc(Cc4ccc5c6c(cc(F)cc46)C(=O)N5C4CCC(=O)NC4=O)c(F)c3)CCN21` (some centres unmarked) [Compound 10] yielded a Dmax of 88.3%.

same assay, conditions: Table 1; HT-1080 IKZF1 HiBiT reporter cells; performed once with technical duplicates, some compounds tested on different days; read-out: HiBiT IKZF1: DC50

Compared with `O=C1CCC(N2C(=O)c3cc(F)cc4c(Cc5ccc(CN6CC(N7CCOCC7)C6)cc5F)ccc2c34)C(=O)N1` (centres unmarked) [Compound 6], `O=C1CCC(N2C(=O)c3cc(F)cc4c(Cc5ccc(CN6CCC(N7CCOCC7)CC6)cc5F)ccc2c34)C(=O)N1` (centres unmarked) [Compound 11] is 3-fold higher in DC50: 0.74 nM for the first, 2.19 nM for the second.

First: O=C1CCC(N2C(=O)c3cc(F)cc4c(Cc5ccc(CN6CCC7(CCCO7)CC6)cc5F)ccc2c34)C(=O)N1 (centres unmarked) [Compound 7]
Second: O=C1CCC(N2C(=O)c3cc(F)cc4c(Cc5ccc(CN6CCOCC6)cc5F)ccc2c34)C(=O)N1 (centres unmarked) [Compound 8]
The DC50 of the first is 18-fold lower: 0.13 nM for the first, 2.37 nM for the second.

Compound `N#Cc1cnc2c(c1)OC[C@H]1CN(Cc3ccc(Cc4ccc5c6c(cc(F)cc46)C(=O)N5C4CCC(=O)NC4=O)c(F)c3)CCN21` (some centres unmarked) [Compound 10] has a DC50 of 0.065 nM.

molecular target: T2, HiBiT-tagged SALL4 (Homo sapiens, UniProt Q96SW2+Q9UJQ4); assay: Degradation assay for SALL4 (HiBiT tag bioluminescence assay); type: cell-based; conditions: HT-1080, Table 1; HT-1080 SALL4 HiBiT reporter cells; maximum percentage of protein degradation
T2 construct: expressed in transfected cells; host or cells: HT-1080 (ATCC CCL-121), lentiviral transduction
Experimental: as §1, §2, §3, §4, §5, §6, §7, §8

T2 sequence (Q9UJQ4 whole entry): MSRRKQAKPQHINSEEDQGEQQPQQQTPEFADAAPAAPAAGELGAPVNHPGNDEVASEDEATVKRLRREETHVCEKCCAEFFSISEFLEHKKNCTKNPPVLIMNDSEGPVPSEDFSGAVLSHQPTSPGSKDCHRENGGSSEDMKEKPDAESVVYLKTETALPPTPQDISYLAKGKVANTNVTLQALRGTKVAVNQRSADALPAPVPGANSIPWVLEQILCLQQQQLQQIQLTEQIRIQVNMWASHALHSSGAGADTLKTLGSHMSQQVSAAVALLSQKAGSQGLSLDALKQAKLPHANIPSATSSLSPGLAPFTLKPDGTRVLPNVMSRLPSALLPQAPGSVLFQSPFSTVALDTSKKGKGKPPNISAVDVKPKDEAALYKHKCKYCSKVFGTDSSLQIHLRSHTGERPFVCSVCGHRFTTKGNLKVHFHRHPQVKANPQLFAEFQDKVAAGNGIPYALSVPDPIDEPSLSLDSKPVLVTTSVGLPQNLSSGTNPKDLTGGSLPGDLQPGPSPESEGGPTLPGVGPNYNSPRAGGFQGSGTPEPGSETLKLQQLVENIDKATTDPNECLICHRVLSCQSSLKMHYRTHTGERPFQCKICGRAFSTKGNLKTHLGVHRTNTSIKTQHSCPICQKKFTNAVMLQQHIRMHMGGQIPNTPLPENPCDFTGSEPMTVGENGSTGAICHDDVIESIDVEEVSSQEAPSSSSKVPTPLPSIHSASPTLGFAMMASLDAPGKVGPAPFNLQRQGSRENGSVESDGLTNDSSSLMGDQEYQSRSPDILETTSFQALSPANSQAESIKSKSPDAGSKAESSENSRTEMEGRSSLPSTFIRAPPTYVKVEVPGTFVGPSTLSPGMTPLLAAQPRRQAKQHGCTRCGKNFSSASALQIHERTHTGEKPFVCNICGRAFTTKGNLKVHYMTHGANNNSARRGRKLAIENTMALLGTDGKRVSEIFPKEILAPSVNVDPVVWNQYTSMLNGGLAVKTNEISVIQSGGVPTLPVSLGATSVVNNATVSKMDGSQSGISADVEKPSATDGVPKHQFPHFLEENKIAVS
T2 sequence (Q96SW2 whole entry): as the sequence (Q96SW2 whole entry) above
T2 sequence (Q16531 whole entry partner): as the sequence (Q16531 whole entry partner) above

Going from `O=C1CCC(N2C(=O)c3cc(F)cc4c(Cc5ccc(CN6CC(N7CCOCC7)C6)cc5F)ccc2c34)C(=O)N1` (centres unmarked) [Compound 6] to `O=C1CCC(N2C(=O)c3cc(F)cc4c(Cc5ccc(CN6CCC(N7CCOCC7)CC6)cc5F)ccc2c34)C(=O)N1` (centres unmarked) [Compound 11], the Dmax rises from 33.7% to 33.9%.

First: O=C1CCC(N2C(=O)c3cc(F)cc4c(Cc5ccc(CN6CCC7(CCCO7)CC6)cc5F)ccc2c34)C(=O)N1 (centres unmarked) [Compound 7]
Second: O=C1CCC(N2C(=O)c3cc(F)cc4c(Cc5ccc(CN6CCOCC6)cc5F)ccc2c34)C(=O)N1 (centres unmarked) [Compound 8]
The Dmax of the first is higher: 45.4% for the first, 34.9% for the second.

Compound `N#Cc1cnc2c(c1)OC[C@H]1CN(Cc3ccc(Cc4ccc5c6c(cc(F)cc46)C(=O)N5C4CCC(=O)NC4=O)c(F)c3)CCN21` (some centres unmarked) [Compound 10] has a Dmax of 29.4%.

same assay, conditions: Table 1; HT-1080 SALL4 HiBiT reporter cells; performed once with technical duplicates, some compounds tested on different days; read-out: HiBiT SALL4: DC50

`O=C1CCC(N2C(=O)c3cc(F)cc4c(Cc5ccc(CN6CC(N7CCOCC7)C6)cc5F)ccc2c34)C(=O)N1` (centres unmarked) [Compound 6] and `O=C1CCC(N2C(=O)c3cc(F)cc4c(Cc5ccc(CN6CCC(N7CCOCC7)CC6)cc5F)ccc2c34)C(=O)N1` (centres unmarked) [Compound 11] cannot be ordered by DC50: greater than 10000 nM for the first, greater than 10000 nM for the second.

`O=C1CCC(N2C(=O)c3cc(F)cc4c(Cc5ccc(CN6CCC7(CCCO7)CC6)cc5F)ccc2c34)C(=O)N1` (centres unmarked) [Compound 7] and `O=C1CCC(N2C(=O)c3cc(F)cc4c(Cc5ccc(CN6CCOCC6)cc5F)ccc2c34)C(=O)N1` (centres unmarked) [Compound 8] cannot be ordered by DC50: greater than 10000 nM for the first, greater than 10000 nM for the second.

`N#Cc1cnc2c(c1)OC[C@H]1CN(Cc3ccc(Cc4ccc5c6c(cc(F)cc46)C(=O)N5C4CCC(=O)NC4=O)c(F)c3)CCN21` (some centres unmarked) [Compound 10] was tested, and the DC50 was greater than 10000 nM.
